Several values for one entry are separate records, joined by “and”; a condition that tells them apart may be missing. Equal entries are not always repeated.
Tests used:
LRRK2^KW = target: T1, LRRK2^KW (Homo sapiens, UniProt Q5S007); test: DSF thermal stabilization of LRRK2^KW; format: binding; details: DSF, LRRK2^KW, 10 μM inhibitor
T1 construct: LRRK2 R1847 to E2527; His6-Z-tag (TEV cleavable) (N, cleaved yes); host or cells: Sf9 insect cells (baculovirus)
T1 sequence (Q5S007 1847-2527): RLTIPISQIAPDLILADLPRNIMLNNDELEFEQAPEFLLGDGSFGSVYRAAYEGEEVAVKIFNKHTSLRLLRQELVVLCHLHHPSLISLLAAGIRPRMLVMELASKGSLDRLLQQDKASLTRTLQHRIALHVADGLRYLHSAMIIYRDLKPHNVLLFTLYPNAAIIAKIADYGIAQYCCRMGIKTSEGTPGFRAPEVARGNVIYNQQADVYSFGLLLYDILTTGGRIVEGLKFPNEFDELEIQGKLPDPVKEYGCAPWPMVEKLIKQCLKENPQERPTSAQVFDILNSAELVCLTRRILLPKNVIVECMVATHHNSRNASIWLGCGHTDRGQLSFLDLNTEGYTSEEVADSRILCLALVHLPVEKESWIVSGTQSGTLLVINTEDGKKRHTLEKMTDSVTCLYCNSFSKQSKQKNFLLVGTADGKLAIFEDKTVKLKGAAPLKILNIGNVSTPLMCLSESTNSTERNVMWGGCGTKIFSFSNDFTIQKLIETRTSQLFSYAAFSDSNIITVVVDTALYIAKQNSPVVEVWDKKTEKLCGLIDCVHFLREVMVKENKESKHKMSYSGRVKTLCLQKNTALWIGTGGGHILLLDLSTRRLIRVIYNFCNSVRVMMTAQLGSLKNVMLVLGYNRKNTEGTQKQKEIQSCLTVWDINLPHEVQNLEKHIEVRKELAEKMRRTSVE
Experimental: To characterize binding between small molecules and LRRK2^KW, induced thermal stabilization was measured by DSF according to previously established protocols ([47]). In brief, LRRK2^KW was diluted to 4 μM in 20 mM Hepes (pH 7.4), 150 mM NaCl, 0.5 mM TCEP, 0.5% glycerol, 20 μM GDP, and 2.5 mM MgCl2, and SYPRO Orange was added (1:1000, MilliporeSigma). Inhibitor (10 μM) to be tested was added to a final sample volume of 20 μl per well of a 96-well plate (white, Starlab). […] The fluorescence was plotted against the temperature, and the melting point (Tm) was determined as the minimum of the first derivative relative to the control.

LRRK2^RCKW = target: T2, LRRK2^RCKW (Homo sapiens, UniProt Q5S007); test: Biochemical LRRK2 activity assay (PhosphoSense, AssayQuant SOX peptide AQT0615); details: for normalized response (LRRK2 activity): normalized to 0% (no kinase) and 100% (no inhibitor) control, two singlicate columns per compound
T2 construct: LRRK2 R1327 to E2527; His6-Z-tag (TEV cleavable) (N, cleaved yes); host or cells: Sf9 insect cells (baculovirus)
T2 sequence (Q5S007 1327-2527): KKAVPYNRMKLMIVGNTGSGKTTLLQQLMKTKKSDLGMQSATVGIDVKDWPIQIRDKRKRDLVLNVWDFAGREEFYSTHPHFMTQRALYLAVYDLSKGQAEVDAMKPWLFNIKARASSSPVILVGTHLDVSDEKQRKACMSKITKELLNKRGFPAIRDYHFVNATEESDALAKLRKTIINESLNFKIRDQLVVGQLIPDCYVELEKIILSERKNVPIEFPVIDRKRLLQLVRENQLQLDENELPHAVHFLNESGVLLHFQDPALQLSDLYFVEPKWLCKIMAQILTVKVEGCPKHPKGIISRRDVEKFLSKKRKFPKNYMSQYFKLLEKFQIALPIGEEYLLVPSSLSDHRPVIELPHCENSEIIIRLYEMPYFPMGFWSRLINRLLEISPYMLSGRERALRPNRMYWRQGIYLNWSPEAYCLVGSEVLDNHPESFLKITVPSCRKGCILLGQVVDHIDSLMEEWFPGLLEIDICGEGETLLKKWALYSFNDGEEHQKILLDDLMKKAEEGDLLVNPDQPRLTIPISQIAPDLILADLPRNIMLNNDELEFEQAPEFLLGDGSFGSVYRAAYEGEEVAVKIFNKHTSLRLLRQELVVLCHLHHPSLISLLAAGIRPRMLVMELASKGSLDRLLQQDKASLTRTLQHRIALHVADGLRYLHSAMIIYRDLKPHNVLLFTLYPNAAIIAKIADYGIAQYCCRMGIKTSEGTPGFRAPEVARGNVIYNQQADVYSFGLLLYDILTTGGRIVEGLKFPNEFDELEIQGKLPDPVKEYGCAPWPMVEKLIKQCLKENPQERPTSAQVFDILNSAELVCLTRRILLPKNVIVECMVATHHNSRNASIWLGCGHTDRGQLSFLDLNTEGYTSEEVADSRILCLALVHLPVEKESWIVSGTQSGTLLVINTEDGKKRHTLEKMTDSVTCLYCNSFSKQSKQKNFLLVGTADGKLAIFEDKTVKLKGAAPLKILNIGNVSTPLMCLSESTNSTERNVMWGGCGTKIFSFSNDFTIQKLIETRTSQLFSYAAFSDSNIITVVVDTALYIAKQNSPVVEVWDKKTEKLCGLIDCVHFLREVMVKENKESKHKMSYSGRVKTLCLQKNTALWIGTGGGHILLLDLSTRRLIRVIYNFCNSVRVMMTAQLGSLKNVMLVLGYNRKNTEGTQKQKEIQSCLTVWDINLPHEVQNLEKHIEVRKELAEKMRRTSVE
Experimental: Two wells per compound were used as 0% (without protein and compound) and 100% (without compound) control. […] The 0% control wells were filled with 10 μl of pure reaction buffer. With the ECHO, 5 nl of 100 mM ATP was pipetted into each well, the plates were centrifuged at 1500g for 2 min, and the reaction was incubated at room temperature for 4 hours. The fluorescence of the SOX-peptide after 360-nm excitation was measured at 487-nm emission with a PHERAstar plate reader (BMG Labtech). The IC50 values were calculated from a nonlinear regression of the log[inhibitor] versus the normalized response with GraphPad Prism 8 (www.graphpad.com/, RRID:SCR_002798).

Row | SMILES | ∆Tm (K) (LRRK2^KW) | normalized response (LRRK2 activity) (LRRK2^RCKW; log[inhibitor(mol)] -7.30103) | normalized response (LRRK2 activity) (LRRK2^RCKW; log[inhibitor(mol)] -7.60206) | normalized response (LRRK2 activity) (LRRK2^RCKW; log[inhibitor(mol)] -8.09691) | normalized response (LRRK2 activity) (LRRK2^RCKW; log[inhibitor(mol)] -8.61979) | normalized response (LRRK2 activity) (LRRK2^RCKW; log[inhibitor(mol)] -9.09691) | normalized response (LRRK2 activity) (LRRK2^RCKW; log[inhibitor(mol)] -9.39794) | IC50 (LRRK2^RCKW; Table S2, bound printed in μM under head IC50 [nM]) [µM] | normalized response (LRRK2 activity) (LRRK2^RCKW; log[inhibitor(mol)] -4.82391) | normalized response (LRRK2 activity) (LRRK2^RCKW; log[inhibitor(mol)] -5.12494) | normalized response (LRRK2 activity) (LRRK2^RCKW; log[inhibitor(mol)] -5.60206) | normalized response (LRRK2 activity) (LRRK2^RCKW; log[inhibitor(mol)] -6.30103) | normalized response (LRRK2 activity) (LRRK2^RCKW; log[inhibitor(mol)] -6.90309) | IC50 (LRRK2^RCKW; LRRK2^RCKW kinase activity, in vitro) [µM]
1 | COc1cc(S(C)(=O)=O)ccc1Nc1nc(N(C)C)c2c(-c3cccc(NC(=O)Nc4cc(C(C)(C)C)nn4-c4ccc(C)cc4)c3)c[nH]c2n1 [Compound 33] | 1.0 | 124.559% and 124.399% | 116.776% and 118.915% | 103.198% and 104.843% | 103.872% and 98.2729% | 102.243% and 101.201% | 101.448% and 104.602% | – | – | – | – | – | – | –
2 | O=C(Nc1ccc(F)cc1)C1(C(=O)Nc2cccc(-c3ccc4n[nH]cc4c3)c2)CC1 [Compound 47] | 3.0 | 98.4526% and 101.585% | 103.828% and 100.546% | 94.8702% and 94.0339% | 91.8535% and 95.7453% | 97.0119% and 90.234% | 103.089% and 99.1004% | > 15 | 115.049% and 93.8598% | 99.0859% and 93.2217% | 93.6133% and 98.8538% | 94.4738% and 97.6114% | 97.3406% and 97.6501% | –
3 | Cc1ccc(-c2c[nH]c3ncnc(N4CCOCC4)c23)cc1NC(=O)C1(C(=O)Nc2ccc(F)cc2)CC1 [Compound 7] | 7.8 | 105.467% and 108.576% | 105.158% and 64.9692% | 97.331% and 101.237% | 106.173% and 99.8401% | 141.905% and 102.383% | 109.403% and 105.477% | – | 48.7254% and 32.1819% | 55.2664% and 57.3114% | 81.8607% and 85.9555% | 94.4496% and 98.762% | 100.265% and 101.228% | 10.5
